Data reported in patent US20120277211A1, “METHODS AND COMPOSITIONS FOR THE TREATMENT OF PSYCHOTIC DISORDERS THROUGH THE IDENTIFICATION OF THE SULT4A1-1 HAPLOTYPE” (priority 2009, published 2012).
Where two headings read alike, the source gives them in different places. Marks after values point to notes of the source that are not given here.

How the values were obtained:
schizophrenia patients [1] = details: Phase II; for Responders: decrease PANSS ≧20%, LOCF
[2] = test system: Caucasian schizophrenia patients; test: CATIE Phase I: change in total PANSS (LOCF) by SULT4A1-1 haplotype status, Caucasians; format: in vivo, human; details: for Percent change from baseline PANSS scores, mean (standard deviation): Phase I; for Percent change from baseline PANSS scores, mean (standard deviation) / Number of individuals with change in total PANSS ≦−20% (responders) / Number of individuals with change in total PANSS ≧−20% (non-responders) / Responders: LOCF; for Number of individuals with change in total PANSS ≦−20% (responders) / Number of individuals with change in total PANSS ≧−20% (non-responders) / Responders: CATIE Caucasians; for Responders: change in PANSS ≦−20%
Description: There are several different metrics for quantifying response in clinical trials of antipsychotic medications. The most commonly used psychometric instrument is the Positive and Negative Syndrome Scale (PANSS), a 30-item semi-quantitative instrument scored by clinical professionals (Kay et al., 1987). The greater the decrease in PANSS score, the better the clinical response. The most direct measure of clinical response is absolute change in PANSS score. In addition to absolute change, the improvement is often reported as a percentage change from baseline PANSS score.
A decrease of at least 20% in total PANSS is one commonly used threshold for response (Leucht et al., 2009).
The design of the CATIE study has been described in detail by others (Lieberman et al., 2005; Stroup et al., 2003). […] A total of 738 subjects consented to provide DNA for genetic study. […] Retrospective genetic analyses, judged to be exempt from human studies requirements by an IRB, were conducted in the current study.
All tested patients were studied using well established clinical endpoints comparing baseline, intermediate, and last observation carried forward (LOCF) for the PANSS scores using CATIE data. LOCF analysis is a commonly used clinical endpoint for clinical trials for neuropsychiatric drugs, with changes in PANSS scores of between negative 20% and negative 30% used as typical endpoints to indicate clinically significant response (Leucht et al., 2009). To remove time on drug as a variable for the CATIE trial, analysis was limited to only those patients who were randomized to a different drug following the initial washout period (drug switchers).
The CATIE clinical data set included baseline PANSS scores based on clinical assessments prior to initiation of the assigned therapy, but following the washout period for any patients previously on antipsychotic medication. Follow up PANSS data for the CATIE trial were collected at each visit as described in detail by others (Stroup et al., 2003).
Since follow-up on subjects was not done at uniform time intervals, analysis was done using the last observation for each patient in treatment Phase I of the trial as the measure of response (last observation carried forward, LOCF). Main effect and interaction terms between the SULT4A1-1 haplotype and drug therapy were included in the linear model. A pre-determined set of contrasts for differences in percent change PANSS by haplotype within each drug therapy (three comparisons) and by drug therapy within each haplotype (six comparisons) were evaluated, with adjustment for multiple-comparisons using the step-up false-discovery rate (FDR) controlling procedure (Benjamini and Hochberg, 1995). A sub-analysis omitting those patients who were randomized to the same antipsychotic drug therapy was also conducted.

[3] = test system: Caucasian schizophrenia patients; test: CATIE: hospitalization due to exacerbation of psychosis by SULT4A1-1 status; format: in vivo, human
Description: To assess if SULT4A1-1 status impacts the risk of hospitalization in Caucasians, the inventors assigned SULT4A1-1 status to each CATIE subject and evaluated hospitalization events due to exacerbation of psychosis. For this analysis, the inventors assigned a dichotomous value (positive or negative) for hospitalization status to subjects in each phase of the trial based on only the first hospitalization event for a given patient in that phase. Patients participating in Phases 1, 2, and/or 3 were included in the totals for the appropriate drug.
A Kaplan-Meier survival analysis was performed to determine whether there was a difference between the survival (hospitalization) rates for the SULT4A1-1 negative and SULT4A1-1 positive patient populations treated with each of the atypical antipsychotics. Survival plots model the fraction of the population that survived (i.e., no hospitalization event) as a function of time.

[4] = test system: Caucasian schizophrenia patients; test: CATIE: time to discontinuation for all causes by SULT4A1-1 status; format: in vivo, human
Description: The primary endpoint for the CATIE study was time to discontinuation for all causes (Lieberman et al., 2005). Thus the inventors evaluated the effect of SULT41-1 status on this important parameter.

[5] = test system: unsegmented patient populations; details: cited from earlier work
[6] = test system: African American schizophrenia patients; test: CATIE: change in total PANSS (LOCF) by SULT4A1-1 haplotype status, African Americans; format: in vivo, human; details: for Number of individuals with change in total PANSS ≦−20% (responders) / Number of individuals with change in total PANSS ≧−20% (non-responders): LOCF
Method: The design of the CATIE study has been described in detail by others (Lieberman et al., 2005; Stroup et al., 2003). […] A total of 738 subjects consented to provide DNA for genetic study. […] Retrospective genetic analyses, judged to be exempt from human studies requirements by an IRB, were conducted in the current study. All tested patients were studied using well established clinical endpoints comparing baseline, intermediate, and last observation carried forward (LOCF) for the PANSS scores using CATIE data. […] To remove time on drug as a variable for the CATIE trial, analysis was limited to only those patients who were randomized to a different drug following the initial washout period (drug switchers).

schizophrenia patients [7] = test: CATIE: months of successful treatment measured by the CGI scale (TMSUCC1); format: in vivo, human
Description: The CATIE clinical data set included Clinical Global Impression (CGI) Scale, an observer-provided assessment of the psychiatric health of the patient (Stroup et al., 2003; Guy 1976). Patients are rated with the CGI Scale from 1 to 7, with higher scores indicating greater severity of illness. The CATIE study provided a response variable that measured the time (in months) of successful treatment as measured by the CGI scale (“TMSUCC1” in the CATIE data).

[8] = comparator = labelled drug in SULT4A1-1+ patients
[9] = complete sample, SULT4A1-1+, labelled drug vs Risperidone
[10] = complete sample, within drug, SULT4A1-1+ vs SULT4A1-1−
[11] = randomized to a different medication, SULT4A1-1+, labelled drug vs Risperidone
[12] = randomized to a different medication, within drug, SULT4A1-1+ vs SULT4A1-1−

OCCOCCN1CCN(C2=Nc3ccccc3Sc3ccccc32)CC1 [Quetiapine]
% Responders (schizophrenia patients [1]; SULT4A1-1 Negative): 9.0%
Nonresponders (schizophrenia patients [1]; SULT4A1-1 Negative): 10
Responders (schizophrenia patients [1]; SULT4A1-1 Negative): 1
% Responders (schizophrenia patients [1]; SULT4A1-1 Positive): 0%
Nonresponders (schizophrenia patients [1]; SULT4A1-1 Positive): 1
Responders (schizophrenia patients [1]; SULT4A1-1 Positive): 0
Mean difference in total PANSS score between olanzapine and labelled drug, CATIE SULT4A1-1+ ([2]; SULT4A1-1+): −12.9
Percent change from baseline PANSS scores, mean (standard deviation) ([2]; SULT4A1-1+, complete sample): −4.52 (17.6) %
Percent change from baseline PANSS scores, mean (standard deviation) ([2]; SULT4A1-1+, patients randomized to a different medication): −6.44 (19.0) %
DELTA PANSS % (mean change in PANSS score from baseline to LOCF) ([2]; SULT4A1-1 negative): 0*** %
Number of individuals with change in total PANSS ≦−20% (responders) ([2]; SULT4A1-1 negative): 13
Number of individuals with change in total PANSS ≧−20% (non-responders) ([2]; SULT4A1-1 negative): 50
Responders ([2]; SULT4A1-1 negative): 20.6%**
DELTA PANSS % (mean change in PANSS score from baseline to LOCF) ([2]; SULT4A1-1 positive): −9** %
Number of individuals with change in total PANSS ≧−20% (non-responders) ([2]; SULT4A1-1 positive): 11
Number of individuals with change in total PANSS ≦−20% (responders) ([2]; SULT4A1-1 positive, randomized to a different drug): 7
Responders ([2]; SULT4A1-1 positive): 38.8%
Mean difference in total PANSS score between olanzapine and labelled drug, CATIE SULT4A1-1− ([2]; SULT4A1-1−): −3.8
Percent change from baseline PANSS scores, mean (standard deviation) ([2]; SULT4A1-1−, complete sample): 0.84 (26.5) %
Percent change from baseline PANSS scores, mean (standard deviation) ([2]; SULT4A1-1−, patients randomized to a different medication): 0.4 (26.7) %
Mean difference in total PANSS score between olanzapine and labelled drug, CATIE unsegmented ([2]; Unsegmented): −6.2
Effect size: olanzapine SULT4A1-1+ vs comparator group [2, 8]: 0.75
Mean difference (95% CI) in delta PANSS: olanzapine SULT4A1-1+ minus comparator group [2, 8]: −14.9 (−28.3 to −1.5)
Difference in percent change in PANSS score (first group minus second) [2, 9]: −1.0%
Difference in percent change in PANSS score, corrected for age, age of onset and sex [2, 9]: −0.54%
Difference in percent change in PANSS score (first group minus second) [2, 10]: −5.4%
Difference in percent change in PANSS score, corrected for age, age of onset and sex [2, 10]: −2.65%
Effect Size attributable to SULT4A1-1 status in CATIE ([2]; olanzapine-treated SULT4A1-1 positive versus labelled drug-treated SULT4A1-1 positive): −0.75^b
Difference in percent change in PANSS score (first group minus second) [2, 11]: −4.6%
Difference in percent change in PANSS score, corrected for age, age of onset and sex [2, 11]: −3.33%
Difference in percent change in PANSS score (first group minus second) [2, 12]: −6.8%
Difference in percent change in PANSS score, corrected for age, age of onset and sex [2, 12]: −2.91%
HOSP, number of patients hospitalized ([3]; SULT4A1-1 negative): 24
HOSP, rate of hospitalization ([3]; SULT4A1-1 negative): 19.5%
HOSP, number of patients hospitalized ([3]; SULT4A1-1 positive): 1
HOSP, rate of hospitalization ([3]; SULT4A1-1 positive): 2.9%
HOSP, rate of hospitalization ([3]; Unsegmented): 15.9%
HOSP, number of patients hospitalized ([3]; Unsegmented, Phases 1, 2 and/or 3, first event): 25
Kaplan-Meier: difference between survival (no hospitalization) rates of SULT4A1-1 negative and positive patients ([3]; per drug): significant difference
Time to discontinuation, mean ([4]; SULT4A1-1 negative): 8.6*** Months
Time to discontinuation, mean ([4]; SULT4A1-1 positive): 10.3 Months
Effect Size vs. FGA ([5]; first generation antipsychotics, Davis et al. (2003)): 0.01
Effect Size vs. Placebo ([5]; meta-analysis, Leucht et al. (2009), negative = greater reduction in PANSS): −0.42
Mean difference in total PANSS score between olanzapine and labelled drug, Meta-analysis ([5]; unsegmented populations, Leucht et al. (2009)): −3.7
Responders ([6]; SULT4A1-1 negative): 26.5%
Number of individuals with change in total PANSS ≦−20% (responders) ([6]; SULT4A1-1 negative): 9
Number of individuals with change in total PANSS ≧−20% (non-responders) ([6]; SULT4A1-1 negative): 25
Responders ([6]; SULT4A1-1 positive): 33.3%
Number of individuals with change in total PANSS ≦−20% (responders) ([6]; SULT4A1-1 positive): 2
Number of individuals with change in total PANSS ≧−20% (non-responders) ([6]; SULT4A1-1 positive): 4
Length of successful treatment (CGI Months), Mean (schizophrenia patients [7]; SULT4A1-1 negative): 4.22 Months
Length of successful treatment (CGI Months), Mean (schizophrenia patients [7]; SULT4A1-1 positive): 5.96^c Months
Length of successful treatment (CGI Months), Mean (schizophrenia patients [7]; Unsegmented): 4.65 Months
